One data set relates to Colon 38 tumor. The data set is described as follows: Potentiation of the antitumor activity of 5-FU by EU, Colon 38 tumor in mice. It is filed as in vivo. How it is done:
Colon 38 tumor was implanted in mice on day zero. Mice (8 per group) were treated with 5-FU on days one through nine with the doses indicated in Table 2 EU was dosed i.p. at 2 mg/kg 30 minutes prior to 5-FU dosing where indicated.

For data set [1], the target named is T1, Uracil reductase (dihydropyrimidine dehydrogenase, EC 1.3.1.2) (Bos taurus, UniProt Q28007).
T1 construct: purified from bovine liver; from tissue; host or cells: bovine liver
T1 sequence (Q28007 1-1025): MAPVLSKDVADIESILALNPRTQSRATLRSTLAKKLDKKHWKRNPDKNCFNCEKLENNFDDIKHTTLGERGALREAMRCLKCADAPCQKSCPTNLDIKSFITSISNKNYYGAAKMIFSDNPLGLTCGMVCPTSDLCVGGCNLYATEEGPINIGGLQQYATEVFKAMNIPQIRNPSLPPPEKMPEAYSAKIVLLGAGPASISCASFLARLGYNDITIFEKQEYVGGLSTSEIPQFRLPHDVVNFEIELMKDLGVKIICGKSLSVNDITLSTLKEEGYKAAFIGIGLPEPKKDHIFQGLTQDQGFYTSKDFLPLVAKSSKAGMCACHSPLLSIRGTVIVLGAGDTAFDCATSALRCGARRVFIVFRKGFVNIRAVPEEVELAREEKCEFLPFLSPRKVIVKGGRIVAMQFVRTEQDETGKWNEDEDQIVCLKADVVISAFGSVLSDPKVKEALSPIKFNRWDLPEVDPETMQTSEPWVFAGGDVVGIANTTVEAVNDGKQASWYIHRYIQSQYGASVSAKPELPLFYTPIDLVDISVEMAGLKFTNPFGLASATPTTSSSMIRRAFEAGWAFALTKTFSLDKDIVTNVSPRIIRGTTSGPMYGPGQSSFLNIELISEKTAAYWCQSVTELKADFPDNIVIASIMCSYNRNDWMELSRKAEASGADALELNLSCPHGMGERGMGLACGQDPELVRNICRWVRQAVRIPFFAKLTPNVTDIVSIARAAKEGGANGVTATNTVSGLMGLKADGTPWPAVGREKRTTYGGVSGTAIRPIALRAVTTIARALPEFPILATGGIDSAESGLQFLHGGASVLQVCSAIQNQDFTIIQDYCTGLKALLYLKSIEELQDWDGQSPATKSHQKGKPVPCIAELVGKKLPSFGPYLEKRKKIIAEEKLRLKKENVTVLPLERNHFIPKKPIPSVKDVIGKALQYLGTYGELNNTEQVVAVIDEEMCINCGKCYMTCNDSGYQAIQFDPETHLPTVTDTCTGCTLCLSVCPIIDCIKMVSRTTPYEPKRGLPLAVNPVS
Description: Determination of uracil reductase inactivation. It is filed as biochemical, bovine. To be noted: for relative first-order rate constants for inactivation of enzyme (parenthetical values): 50 micromol inactivator, fractional activity vs time of incubation; for inhibition at 100 µM: 0.5 h. How it is done:
Uracil reductase (1 micromolar) (dihydropyrimidine dehydrogenase, EC 1.3.1.2) purified from bovine liver was incubated with 100 micromolar inactivator and 5 mM dithiothreitol (enzyme reductant) at 37° for 30 minutes in 0.05 M Tris-HCl at pH 8.0. The enzyme and inactivator were diluted 100-fold into the assay buffer, which contained 200 micromolar NADPH, 200 micromolar thymine and 1 mM dithiothreitol in Tris-HCl at pH 8.0. The velocity of the enzyme was determined spectrophotometrically. These velocities have been corrected for NADPH oxidase activity, which was less than […] of the rate of thymine-dependent oxidation of NADPH. The % inactivation of the enzyme was equal to 100% minus the percent of enzymatic activity remaining. Enzyme incubated without inhibitor was stable under these conditions. Parenthetical values are the relative first-order rate constants for inactivation of enzyme determined from similar experiments where the fractional activity was measured as a function of the time of incubation of 50 micromol inactivator with enzyme.

The conditions of data set [2]: in vivo; cited from earlier work.
Data set [3] concerns the target T2, dihydrothymidine dehydrogenase (Homo sapiens, UniProt Q12882).
T2 sequence (Q12882 4-1025): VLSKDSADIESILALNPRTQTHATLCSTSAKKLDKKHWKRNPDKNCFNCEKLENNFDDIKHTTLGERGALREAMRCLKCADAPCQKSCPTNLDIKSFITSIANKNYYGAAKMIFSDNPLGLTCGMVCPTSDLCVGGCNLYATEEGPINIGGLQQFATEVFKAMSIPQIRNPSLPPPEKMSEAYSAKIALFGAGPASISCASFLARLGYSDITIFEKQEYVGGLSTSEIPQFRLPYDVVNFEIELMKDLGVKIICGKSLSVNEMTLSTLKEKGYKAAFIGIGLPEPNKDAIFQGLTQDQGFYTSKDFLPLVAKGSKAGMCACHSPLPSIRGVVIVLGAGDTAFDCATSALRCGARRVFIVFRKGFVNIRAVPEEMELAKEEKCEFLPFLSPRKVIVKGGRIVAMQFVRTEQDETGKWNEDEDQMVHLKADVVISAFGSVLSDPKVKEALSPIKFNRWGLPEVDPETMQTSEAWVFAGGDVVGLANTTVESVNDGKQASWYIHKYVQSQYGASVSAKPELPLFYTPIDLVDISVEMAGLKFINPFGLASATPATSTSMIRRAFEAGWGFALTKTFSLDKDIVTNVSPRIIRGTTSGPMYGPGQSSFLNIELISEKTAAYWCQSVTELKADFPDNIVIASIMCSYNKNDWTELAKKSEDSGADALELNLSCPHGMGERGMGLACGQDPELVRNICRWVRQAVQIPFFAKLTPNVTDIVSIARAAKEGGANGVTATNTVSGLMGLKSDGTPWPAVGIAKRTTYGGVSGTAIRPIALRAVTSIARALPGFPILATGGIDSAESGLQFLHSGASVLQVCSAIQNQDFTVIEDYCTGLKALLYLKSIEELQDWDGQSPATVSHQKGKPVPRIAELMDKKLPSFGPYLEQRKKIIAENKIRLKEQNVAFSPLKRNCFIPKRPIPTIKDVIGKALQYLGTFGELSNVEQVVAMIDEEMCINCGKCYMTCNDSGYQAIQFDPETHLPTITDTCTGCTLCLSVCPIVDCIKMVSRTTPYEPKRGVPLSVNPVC
The settings on record: Cancer Research 46, 1094, 1986; cited from earlier work.

Where [4] appears, read: 100 micromolar inactivator, 1 micromolar enzyme, 5 mM dithiothreitol, 37° for 30 minutes, pH 8.0, read-out: % Inactivation.

Like-named read-outs stand apart in the source and are kept apart here. Marks after values point to notes of the source that are not given here.

For `O=c1[nH]cc(F)c(=O)[nH]1` [FU, 5-fluorouracil], the “% Mice Tumor Free on Day 17” value with Colon 38 tumor (5-FU 10 mg/kg i.p. days 1-9, no EU) came to 0%; in the data set with Colon 38 tumor (5-FU 10 mg/kg p.o. days 1-9, no EU), 0%; in the data set on Colon 38 tumor (5-FU 15 mg/kg i.p. days 1-9, no EU), 12.5%; in the data set with Colon 38 tumor (5-FU 15 mg/kg p.o. days 1-9, no EU), 12.5%; with Colon 38 tumor (5-FU 20 mg/kg i.p. days 1-9, no EU), 12.5%; in the data set on Colon 38 tumor (5-FU 20 mg/kg p.o. days 1-9, no EU) it was 12.5%. Also, the “% Mice Tumor Free on Day 17” value is reported as 12.5% with Colon 38 tumor (5-FU 25 mg/kg p.o. days 1-9, no EU); 87.5^a % in the data set on Colon 38 tumor (5-FU 30 mg/kg i.p. days 1-9, no EU); 12.5% in the data set on Colon 38 tumor (5-FU 30 mg/kg p.o. days 1-9, no EU).
Take `C=C(Cl)c1c[nH]c(=O)[nH]c1=O` [5-(1-chlorovinyl)uracil]: the “relative first-order rate constants for inactivation of enzyme (parenthetical values)” value (“relative first-order rate constants” for short) in data set [1] is recorded as “(5)”. The inhibition at 100 µM in data set [1] (setting [4]) stood at 100%.
Take `CCCCC#Cc1c[nH]c(=O)[nH]c1=O` [5-hex-1-ynyluracil]: in data set [1] (setting [4]), the inhibition at 100 µM amounted to 90%.
With `O=c1[nH]cc(C#CBr)c(=O)[nH]1` [5-bromoethynyluracil], in data set [1], the “relative first-order rate constants” value is listed as “(8)”. The inhibition at 100 µM in data set [1] (setting [4]) worked out at 100%.
In the case of `O=c1[nH]cc(Br)c(=O)[nH]1` [5-bromouracil], the inhibition at 100 µM in data set [1] (pH 8, read-out: % Inactivation) is 75%.
Regarding `O=c1[nH]cc(C=CBr)c(=O)[nH]1` [BVU, 5-(2-bromovinyl)-uracil], in data set [2], the toxicity to humans entry is on record as “toxic to humans”. Also, the “inhibition of dihydrothymidine dehydrogenase” value in data set [3] was “is an inhibitor”.
For `O=c1[nH]cc(C(F)(F)F)c(=O)[nH]1` [5-trifluoromethyluracil], the inhibition at 100 µM in data set [1] (setting [4]) worked out at 75%.
With `C=Cc1c[nH]c(=O)[nH]c1=O` [5-vinyluracil], the inhibition at 100 µM in data set [1] (setting [4]) came out at 86%.
Consider `O=c1[nH]cc(I)c(=O)[nH]1` [Example 5-iodouracil, 5-iodouracil], for which, in data set [1], the “relative first-order rate constants” value is “(4)”. In data set [1] (setting [4]), the inhibition at 100 µM was found to be 100%.
Consider `N#Cc1c[nH]c(=O)[nH]c1=O` [5-cyanouracil], for which the “relative first-order rate constants” value in data set [1] was “(14)”. Further, the inhibition at 100 µM in data set [1] (setting [4]) is 100%.
On to `CC#Cc1c[nH]c(=O)[nH]c1=O` [5-propynyluracil, 5-Propynyluracil], for which the melting point was 275 to 280 °C (dec.). For the same compound, the “relative first-order rate constants” value in data set [1] is “(8)”. For the same compound, the inhibition at 100 µM in data set [1] (setting [4]) is 100%.

Source of the values: patent US7704971B2, “Uracil reductase inactivators” (SmithKlineBeecham Corporation, priority 1990, dated 2010).
